ChEMBL document CHEMBL1150074, “Cytotoxic aromatic triterpenes from Maytenus ilicifolia and Maytenus chuchuhuasca” (J Nat Prod, 1994)
In brackets after ≈: the same amount, converted by molar mass.

Experiments:
Format in all cases: functional, cell-based
KB = experiment: Cytotoxicity against human KB cells by MTT assay
L1210 = experiment: Cytotoxicity against mouse L1210 cells by MTT assay
P388 = experiment: Cytotoxicity against mouse P388 cells by MTT assay

Row | Compound | IC50 (KB) [µg/mL] | IC50 (L1210) [µg/mL] | IC50 (P388) [µg/mL]
1 | COC(=O)[C@]1(C)CC[C@]2(C)CC[C@]3(C)C4=CC(=O)c5c(cc(O)c(O)c5C)[C@]4(C)CC[C@@]3(C)[C@@H]2C1 | 2.8 (≈ 5.83 µM) | 2.8 (≈ 5.83 µM) | 1.5 (≈ 3.12 µM)
2 | COc1c(O)cc2c(c1CO)C(=O)C=C1[C@@]2(C)CC[C@]2(C)[C@@H]3C[C@@H](C)C(=O)[C@@H](O)[C@]3(C)CC[C@]12C |  |  | 4.3 (≈ 8.91 µM)
3 | COc1c(O)cc2c(c1C)C(=O)C=C1[C@@]2(C)CC[C@]2(C)[C@@H]3C[C@@H](C)C(=O)C[C@]3(C)CC[C@]12C | 11 (≈ 24.4 µM) | > 100 | > 100
4 | Cc1c(O)c(O)cc2c1C(=O)C=C1[C@@]2(C)CC[C@@]2(C)[C@@H]3C[C@@H](C)C(=O)C[C@]3(C)CC[C@]12C [6-OXOTINGENOL] | 30 (≈ 68.7 µM) | 6 (≈ 13.7 µM) | 2.6 (≈ 5.96 µM)
5 | COC(=O)[C@]1(C)CC[C@]2(C)CC[C@]3(C)C4=CC=C5C(=CC(=O)C(O)=C5C)[C@]4(C)CC[C@@]3(C)[C@@H]2C1 [PRISTIMERIN] | 0.55 (≈ 1.18 µM) | 0.36 (≈ 0.775 µM) | 0.12 (≈ 0.258 µM)
6 | CC1=C(O)C(=O)C=C2C1=CC=C1[C@@]2(C)CC[C@@]2(C)[C@@H]3C[C@@H](C)C(=O)[C@@H](O)[C@]3(C)CC[C@]12C [TINGENIN B] |  |  | 0.012 (≈ 0.0275 µM)
7 | CC1=C(O)C(=O)C=C2C1=CC=C1[C@@]2(C)CC[C@@]2(C)[C@@H]3C[C@@H](C)C(=O)C[C@]3(C)CC[C@]12C [TINGENONE] | 0.28 (≈ 0.666 µM) | 0.14 (≈ 0.333 µM) | 0.041 (≈ 0.0975 µM)
